In patent US10745392B2, “Benzenesulfonamide compounds and their use as therapeutic agents” (Xenon Pharmaceuticals Inc., priority 2018, dated 2020):
Read-outs that look alike come from different tables or passages of the source.

Legend:
NaV1.5 [1] = molecular target: T1, NaV1.5 (Homo sapiens (Human), UniProt Q14524); assay: Sodium Influx Assay (Flux) NaV1.5
NaV1.1 = NaV1.1 (Homo sapiens (Human), UniProt P35498); assay: Sodium Influx Assay (Flux) NaV1.1; type: cell-based; conditions: Trex HEK293 cells, ANG2 dye, inhibition of sodium ion influx
NaV1.6 = NaV1.6 (Homo sapiens (Human), UniProt Q9UQD0); assay: Sodium Influx Assay (Flux) NaV1.6; type: cell-based; conditions: Trex HEK293 cells, ANG2 dye, inhibition of sodium ion influx
NaV1.5 [2] = molecular target: T1, NaV1.5
[3] = read-out: Flux NaV1.5 IC50, Trex HEK293 cells, ANG2 dye, inhibition of sodium ion influx

T1 sequence (Q14524 other isoform, or with tags, fused parts or gaps): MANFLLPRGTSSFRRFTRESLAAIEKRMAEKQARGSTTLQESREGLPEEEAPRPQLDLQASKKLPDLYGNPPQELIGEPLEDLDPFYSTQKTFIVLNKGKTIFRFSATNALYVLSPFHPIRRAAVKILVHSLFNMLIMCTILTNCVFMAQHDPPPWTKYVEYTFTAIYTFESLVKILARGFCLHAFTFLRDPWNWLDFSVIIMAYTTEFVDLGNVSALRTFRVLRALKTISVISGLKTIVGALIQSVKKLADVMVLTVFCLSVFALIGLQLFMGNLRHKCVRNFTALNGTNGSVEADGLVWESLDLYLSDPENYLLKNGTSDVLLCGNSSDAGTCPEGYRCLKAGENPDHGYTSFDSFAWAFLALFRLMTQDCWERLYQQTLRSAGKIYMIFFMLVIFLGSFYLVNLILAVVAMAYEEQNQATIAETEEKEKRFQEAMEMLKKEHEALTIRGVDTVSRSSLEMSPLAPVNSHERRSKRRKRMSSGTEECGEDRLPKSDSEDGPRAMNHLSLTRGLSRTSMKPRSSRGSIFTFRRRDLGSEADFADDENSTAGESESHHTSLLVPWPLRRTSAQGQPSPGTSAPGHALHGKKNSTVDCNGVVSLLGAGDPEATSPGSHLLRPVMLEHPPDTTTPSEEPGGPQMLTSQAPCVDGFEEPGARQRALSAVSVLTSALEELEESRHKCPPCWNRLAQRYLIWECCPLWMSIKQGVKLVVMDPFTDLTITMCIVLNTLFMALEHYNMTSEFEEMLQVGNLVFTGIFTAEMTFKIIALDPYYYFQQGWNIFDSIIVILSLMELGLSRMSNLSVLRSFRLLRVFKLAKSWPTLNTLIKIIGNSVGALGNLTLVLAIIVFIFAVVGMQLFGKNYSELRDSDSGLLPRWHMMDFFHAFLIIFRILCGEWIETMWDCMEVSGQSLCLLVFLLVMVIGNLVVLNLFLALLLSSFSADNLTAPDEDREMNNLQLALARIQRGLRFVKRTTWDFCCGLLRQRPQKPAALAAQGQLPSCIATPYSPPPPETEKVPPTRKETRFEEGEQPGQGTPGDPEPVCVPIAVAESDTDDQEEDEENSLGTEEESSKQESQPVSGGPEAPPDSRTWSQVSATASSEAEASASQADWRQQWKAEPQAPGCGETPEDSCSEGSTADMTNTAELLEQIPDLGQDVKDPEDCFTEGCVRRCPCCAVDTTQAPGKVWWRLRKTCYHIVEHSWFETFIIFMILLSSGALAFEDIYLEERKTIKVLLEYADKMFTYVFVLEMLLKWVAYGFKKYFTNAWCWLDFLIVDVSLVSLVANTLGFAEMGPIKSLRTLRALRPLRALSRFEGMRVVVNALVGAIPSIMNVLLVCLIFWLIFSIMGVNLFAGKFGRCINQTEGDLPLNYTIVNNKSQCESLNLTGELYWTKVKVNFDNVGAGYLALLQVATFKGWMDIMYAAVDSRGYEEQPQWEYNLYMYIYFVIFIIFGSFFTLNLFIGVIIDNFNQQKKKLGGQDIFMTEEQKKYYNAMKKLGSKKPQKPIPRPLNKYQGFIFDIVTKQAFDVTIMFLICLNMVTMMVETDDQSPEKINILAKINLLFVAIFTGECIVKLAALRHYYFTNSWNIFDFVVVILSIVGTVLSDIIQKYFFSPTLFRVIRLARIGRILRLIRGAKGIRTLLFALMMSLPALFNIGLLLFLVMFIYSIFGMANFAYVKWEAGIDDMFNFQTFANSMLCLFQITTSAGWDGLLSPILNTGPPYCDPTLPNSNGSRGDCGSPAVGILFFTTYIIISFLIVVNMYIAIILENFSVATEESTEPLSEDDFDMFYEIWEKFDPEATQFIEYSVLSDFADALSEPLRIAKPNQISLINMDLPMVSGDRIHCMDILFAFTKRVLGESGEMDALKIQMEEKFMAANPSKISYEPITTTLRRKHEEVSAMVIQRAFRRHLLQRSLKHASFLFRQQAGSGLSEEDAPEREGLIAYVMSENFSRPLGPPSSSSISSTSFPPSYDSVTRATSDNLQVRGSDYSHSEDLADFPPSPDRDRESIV

Compound	IC50 (NaV1.5 [1]) [µM]	IC50 (NaV1.1) [µM]	IC50 (NaV1.6) [µM]	IC50 (NaV1.5 [2]) [µM]	IC50 (NaV1.5 [1]; [3]) [µM]
C[C@@H](c1c(F)ccc(F)c1CNc1cc(F)c(S(=O)(=O)Nc2cscn2)c(F)c1)N1C2CCC1CC2 (single isomer, unassigned) [Example 15a]	> 30	> 30	0.53	–	–
C[C@H](c1c(F)ccc(F)c1CNc1cc(F)c(S(=O)(=O)Nc2cscn2)c(F)c1)N1C2CCC1CC2 (single isomer, unassigned) [Example 15b]	> 30	> 30	0.821	–	–
O=S(=O)(Nc1ccsn1)c1c(F)cc(NCc2c(F)cccc2CN2C3CCC2CC3)cc1F [Example 1, 4-((2-((7-azabicyclo[2.2.1]heptan-7-yl)methyl)-6-fluorobenzyl)amino)-2,6-difluoro-N-(isothiazol-3-yl)benzenesulfonamide]	–	9.6	0.015	> 30	–
COc1ccc(F)c(CNc2cc(F)c(S(=O)(=O)Nc3cscn3)c(F)c2)c1CN(C)C(C)C [Example 2, 2,6-difluoro-4-((6-fluoro-2-((isopropyl(methyl)amino)methyl)-3-methoxybenzyl)amino)-N-(thiazol-4-yl)benzenesulfonamide]	–	27.5	0.027	–	28.3
O=S(=O)(Nc1cscn1)c1ccc(NCc2c(F)cccc2CN2C3CCC2CC3)c(F)c1F [Example 3, 4-((2-((7-azabicyclo[2.2.1]heptan-7-yl)methyl)-6-fluorobenzyl)amino)-2,3-difluoro-N-(thiazol-4-yl)benzenesulfonamide]	–	> 30	0.142	> 30	–
Cc1c(NCc2c(F)cccc2CN2C3CCC2CC3)cc(F)c(S(=O)(=O)Nc2ccon2)c1F [Example 4, 4-((2-((7-azabicyclo[2.2.1]heptan-7-yl)methyl)-6-fluorobenzyl)amino)-2,6-difluoro-N-(isoxazol-3-yl)-3-methylbenzenesulfonamide]	–	17	0.047	> 30	–
Cc1c(NCc2c(F)cccc2CN2C3CCC2CC3)ccc(S(=O)(=O)Nc2ccon2)c1F [Example 5, 4-((2-((7-azabicyclo[2.2.1]heptan-7-yl)methyl)-6-fluorobenzyl)amino)-2-fluoro-N-(isoxazol-3-yl)-3-methylbenzenesulfonamide 2,2,2-trifluoroacetate]	–	> 30	0.617	> 30	–
O=S(=O)(Nc1cscn1)c1ccc(NCc2c(F)cccc2CN2C3CCC2CC3)c(Cl)c1F [Example 6, 4-((2-((7-azabicyclo[2.2.1]heptan-7-yl)methyl)-6-fluorobenzyl)amino)-3-chloro-2-fluoro-N-(thiazol-4-yl)benzenesulfonamide 2,2,2-trifluoroacetate]	–	5.23	0.095	15.3	–
Cc1c(NCc2c(F)cccc2CN2C3CCC2CC3)ccc(S(=O)(=O)Nc2cscn2)c1F [Example 7, 4-((2-((7-azabicyclo[2.2.1]heptan-7-yl)methyl)-6-fluorobenzyl)amino)-2-fluoro-3-methyl-N-(thiazol-4-yl)benzenesulfonamide 2,2,2-trifluoroacetate]	–	7.44	0.181	21.3	–
CC(C)Oc1ccc(F)c(CNc2cc(F)c(S(=O)(=O)Nc3cscn3)c(F)c2)c1CN(C)C(C)C [Example 8, 2,6-difluoro-4-((6-fluoro-3-isopropoxy-2-((isopropyl(methyl)amino)methyl)benzyl)amino)-N-(thiazol-4-yl)benzenesulfonamide]	–	28	0.026	–	11.1
O=S(=O)(Nc1cscn1)c1c(F)cc(NCc2c(F)cccc2CN2C3CCC2CC3)cc1F [Example 9, 4-((2-((7-azabicyclo[2.2.1]heptan-7-yl)methyl)-6-fluorobenzyl)amino)-2,6-difluoro-N-(thiazol-4-yl)benzenesulfonamide 2,2,2-trifluoroacetate]	–	7.84	0.026	20.4	–
O=S(=O)(Nc1cscn1)c1c(F)cc(NCc2c(F)ccc(F)c2CN2C3CCC2CC3)cc1F [Example 10, 4-((2-((7-azabicyclo[2.2.1]heptan-7-yl)methyl)-3,6-difluorobenzyl)amino)-2,6-difluoro-N-(thiazol-4-yl)benzenesulfonamide]	–	7.93	0.028	25.4	–
COc1ccc(F)c(CNc2cc(F)c(S(=O)(=O)Nc3cscn3)c(F)c2)c1CN1C2CCC1CC2 [Example 11, 4-((2-((7-azabicyclo[2.2.1]heptan-7-yl)methyl)-6-fluoro-3-methoxybenzyl)amino)-2,6-difluoro-N-(thiazol-4-yl)benzenesulfonamide 2,2,2-trifluoroacetate]	–	5.91	0.002	27.5	–
COc1ccc(F)c(CNc2ccc(S(=O)(=O)Nc3cscn3)c(F)c2F)c1CN1C2CCC1CC2 [Example 12, 4-((2-((7-azabicyclo[2.2.1]heptan-7-yl)methyl)-6-fluoro-3-methoxybenzyl)amino)-2,3-difluoro-N-(thiazol-4-yl)benzenesulfonamide 2,2,2-trifluoroacetate]	–	> 30	0.054	> 30	–
O=S(=O)(Nc1ccsn1)c1ccc(NCc2c(F)cccc2CN2C3CCC2CC3)c(F)c1F [Example 13, 4-((2-((7-azabicyclo[2.2.1]heptan-7-yl)methyl)-6-fluorobenzyl)amino)-2,3-difluoro-N-(isothiazol-3-yl)benzenesulfonamide 2,2,2-trifluoroacetate]	–	23.7	0.27	> 30	–
CC(c1c(F)ccc(F)c1CNc1cc(F)c(S(=O)(=O)Nc2cscn2)c(F)c1)N1C2CCC1CC2 (stereo not drawn) [Example 14, 4-((2-(1-(7-azabicyclo[2.2.1]heptan-7-yl)ethyl)-3,6-difluorobenzyl)amino)-2,6-difluoro-N-(thiazol-4-yl)benzenesulfonamide 2,2,2-trifluoroacetate]	–	> 30	0.653	12.8	–
COc1ccc(F)c(CNc2ccc(S(=O)(=O)Nc3cscn3)c(F)c2F)c1CN(C)C(C)C [Example 16, 2,3-difluoro-4-((6-fluoro-2-((isopropyl(methyl)amino)methyl)-3-methoxybenzyl)amino)-N-(thiazol-4-yl)benzenesulfonamide]	–	> 30	0.031	–	9.46
COc1ccc(F)c(CNc2cc(F)c(S(=O)(=O)Nc3cscn3)cc2Cl)c1CN(C)C(C)C [Example 17, 5-chloro-2-fluoro-4-((6-fluoro-2-((isopropyl(methyl)amino)methyl)-3-methoxybenzyl)amino)-N-(thiazol-4-yl)benzenesulfonamide 2,2,2-trifluoroacetate]	–	> 30	0.012	–	16.3
COc1ccc(F)c(CNc2cc(F)c(S(=O)(=O)Nc3cscn3)cc2C)c1CN(C)C(C)C [Example 18, 2-fluoro-4-((6-fluoro-2-((isopropyl(methyl)amino)methyl)-3-methoxybenzyl)amino)-5-methyl-N-(thiazol-4-yl)benzenesulfonamide 2,2,2-trifluoroacetate]	–	> 30	0.016	–	11.8
